The values below come from ChEMBL document CHEMBL1201862, “PubChem BioAssay data set” (2004).

Each structure is given as a SMILES string.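 Test compounds were applied to cells in 96-well plates for 48 hours at 5 doses. GI50 is the concentration that inhibits growth by half.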 Calls of active or inactive are those of the source. Cut-off read from the data, not from the text of the source: active = GI50 up to about 1.1 µM and inactive = higher.

Test systems include DU-145; SW-620; HCT-116; COLO 205; ACHN; DMS-273; CCRF-CEM; SF-539; CAKI-1; SK-OV-3; XF498; TK-10; OVCAR-4; MCF7; RXF 393; UACC-62; HT-29; HCT-15; MDA-N; EKVX.
Experiment in all cases: NCI-60 cell line screen, 48 h

Turning to `Cc1cnc(NCCCN(C)C)c2c1[nH]c1ccc3cc(O)ccc3c12`, the GI50 is 1290 nM (inactive) in the experiment on DU-145; 166 nM (active) in the experiment on SW-620; 236 nM (active) in the experiment with HCT-116; 244 nM (active) with COLO 205; 552 nM (active) with ACHN; 462 nM (active) in the experiment with DMS-273. Besides, the GI50 with CCRF-CEM is 1010 nM (active); in the experiment with SF-539 it was 508 nM (active); with CAKI-1, 566 nM (active); in the experiment on SK-OV-3 it was 569 nM (active); with XF498 it was 222 nM (active); in the experiment on TK-10, 6040 nM (inactive). For the same compound, the GI50 was 282 nM (active) with OVCAR-4; 308 nM (active) in the experiment on MCF7; 667 nM (active) in the experiment with RXF 393; 678 nM (active) with UACC-62; 362 nM (active) with HT-29; 4630 nM in the experiment on HCT-15. For the same compound, the figures for the GI50 in the experiment with MDA-N and with EKVX were 1040 nM (active) and 1490 nM (inactive), respectively.
Take `Cc1cc(-c2c(F)cc3c4nn([C@H]5CC[C@@H](N(C)C)CC5)c(=O)c-4cn(C4CC4)c3c2F)cc(C)n1`: the GI50 was 416 nM (active) in the experiment on DU-145; 195 nM (active) in the experiment with SW-620; 160 nM (active) with HCT-116; 208 nM (active) in the experiment on COLO 205; 214 nM (active) with ACHN; 5.94 nM (active) in the experiment on DMS-273. Also, the GI50 with CCRF-CEM was 45.2 nM (active); in the experiment on SF-539 it was 177 nM (active); in the experiment with CAKI-1, 51.9 nM (active); in the experiment with SK-OV-3, 183 nM (active); in the experiment on XF498 it was 318 nM (active); in the experiment on TK-10 it was 519 nM (active). Further, the GI50 in the experiment with OVCAR-4 is 3360 nM (inactive); with MCF7, 72.8 nM (active); with RXF 393 it was 430 nM (active); in the experiment with UACC-62 it was 159 nM (active); with HT-29, 245 nM (active); with HCT-15 it was 1740 nM. The results for the GI50 with MDA-N and in the experiment on EKVX were 1560 nM (inactive) and 2060 nM (inactive), respectively.
For `CSC(=N\c1ccccc1)/N=C(\SCc1ccccc1)N(C)C`, the GI50 was 900 nM (active) in the experiment with DU-145; 312 nM (active) in the experiment with SW-620; 292 nM (active) in the experiment on HCT-116; 407 nM (active) with COLO 205; 1000 nM (active) in the experiment on ACHN; 590 nM (active) in the experiment with DMS-273. Moreover, the GI50 with CCRF-CEM is 270 nM (active); with SF-539, 1280 nM (inactive); in the experiment on CAKI-1, 927 nM (active); in the experiment with SK-OV-3 it was 3240 nM (inactive); in the experiment with XF498, 1330 nM (inactive); in the experiment with TK-10, 1150 nM (inactive). The GI50 in the experiment on OVCAR-4 was 889 nM (active); in the experiment on MCF7, 278 nM (active); in the experiment with RXF 393, 989 nM (active); in the experiment with UACC-62, 555 nM (active); in the experiment on HT-29, 288 nM (active); in the experiment on HCT-15, 463 nM. The GI50 with MDA-N was 748 nM (active); with EKVX, 1630 nM (inactive).
